These are literature values, as cited in article PMC5108082, “Pharmacokinetics, toxicity, and cytochrome P450 modulatory activity of plumbagin” (BMC Pharmacology & Toxicology, 2016).

For data set [1], the system named is K1 chloroquine-resistant P. falciparum. The note with it: K1 clone; read-out: mean IC50; cited from earlier work.
In data set [2] the test system is 3D7 chloroquine-sensitive P. falciparum. As to conditions: 3D7 clone; read-out: mean IC50; cited from earlier work.

For the compound `C[C@H]1[C@H](OC(=O)CCC(=O)O)O[C@@H]2O[C@@]3(C)CC[C@H]4[C@H](C)CC[C@@H]1[C@@]24OO3` [artesunate], the figures for the IC50 in data set [1] and in data set [2] were 1.5 nM and 2 nM, respectively.
For `CCN(CC)CCCC(C)Nc1ccnc2cc(Cl)ccc12` (centres unmarked) [chloroquine], the IC50 in data set [1] was 130 nM; in data set [2], 8 nM.
Turning to `OC(c1cc(C(F)(F)F)nc2c(C(F)(F)F)cccc12)C1CCCCN1` (centres unmarked) [mefloquine], the IC50 was 12 nM in data set [1] and 10 nM in data set [2].
With `C=C[C@H]1C[N@@]2CC[C@H]1C[C@H]2[C@H](O)c1ccnc2ccc(OC)cc12` [quinine], the 50% inhibitory concentration (IC50) in data set [1] was 133 nM; in data set [2] it was 52 nM.
